# Laboratory results reported in PMC10146491, “Meroterpenoids from Gongolaria abies-marina against Kinetoplastids: In Vitro Activity and Programmed Cell Death Study” (Pharmaceuticals, 2023).
# Columns and labels:
# [1] = tested on: promastigotes of L. amazonensis; experiment: Leishmanicidal activity assay (Alamar Blue), promastigotes; assay type: cell-based, Leishmania amazonensis
# Description: (§1) To carry out the experiments, promastigotes of Leishmania amazonensis (MHOM/BR/77/LTB0016) and L. donovani (MHOM/IN/90/GE1F8R) and epimastigotes of Trypanosoma cruzi (Y strain) were employed. Leishmania species were cultured in Schneider’s medium (Sigma-Aldrich, Madrid, Spain), supplemented with 10% fetal bovine serum (VWR, Biowest, Nuaillé, France) and incubated at 26 °C. RPMI 1640 medium (Gibco, Thermo Fisher, Madrid, Spain) with or without phenol red was also used to culture the parasites at the same temperature. Epimastigotes of T. cruzi were cultured in liver infusion tryptose (LIT) medium supplemented with 10% fetal bovine serum at 26 °C. A cytotoxicity assay was performed using a murine macrophage cell line J774A.1 (ATCC TIB-67), which was maintained in Dulbecco’s modified Eagle’s medium (Gibco, Thermo Fisher, Madrid, Spain) supplemented with 10% of fetal bovine serum at 37 °C in a 5% CO2 atmosphere.
# (§2) With the objective of determining the antiparasitic activity of the compounds isolated from G. abies-marina, leishmanicidal activity assays were performed against promastigote stages of L. amazonensis and L. donovani, as well as a trypanocidal activity assay performed against epimastigote stages of T. cruzi. In both parasites, a colorimetric assay was used based on the Alamar Blue reagent (Life Technologies, Madrid, Spain) as previously described by Bethencourt-Estrella et al. (2021).
# (§3) In a sterile 96 well-plate, serial dilutions of the extracts, fractions or compounds isolated from G. abies-marina were performed in RPMI 1640 medium without phenol red (in the case of Leishmania spp.) or in LIT (in the case of T. cruzi) with a final volume of 100 µL. Parasites were added to wells to reach a concentration of 5 × 10^5 (Leishmania spp.) or 2.5 × 10^5 (T. cruzi) until a final volume of 200 µL/well. Next, 10% of Alamar Blue® was placed into each well and the plate was incubated for 72 h at 26 °C. Finally, the fluorescence of each well was measured using an EnSpire® Multimode Plate Reader (Perkin Elmer, Madrid, Spain) (544 nm excitation, 590 nm emission) and the concentration that inhibits 50% of the parasite population (IC50) was calculated using a non-linear regression analysis with 95% confidence limits. Miltefosine and benznidazol were used as reference drugs. To analyze the data and calculate the IC50, SigmaPlot 12.0 statistical analysis software (Systat Software Inc, Palo Alto, CA, USA) was used.
# (§4) The 50% inhibitory concentration (IC50) and 50% cytotoxic concentration (CC50) values were obtained using Sigma Plot 12.0 statistical analysis software (Systat Software) and calculated using a non-linear regression analysis with 95% confidence limits. Leishmanicidal and trypanocidal activity assays, as well as cytotoxicity assays, were performed three times on different days, and the results were expressed as means ± standard deviations. The analysis of variance was determined using a one-way ANOVA using the GraphPad.PRISM® 9.0 software program (GraphPad Software, San Diego, CA, USA). Differences at p < 0.05 were considered statistically significant.
# [2] = tested on: promastigotes of L. donovani; experiment: as above; assay type: cell-based, Leishmania donovani
# Description: as §1, §2, §3, §4
# [3] = tested on: epimastigotes of Trypanosoma cruzi; experiment: Trypanocidal activity assay (Alamar Blue), epimastigotes; assay type: cell-based
# Description: as §1, §2, §3, §4
# [4] = Cytotoxicity assay (Alamar Blue); assay type: cell-based; details: mouse, J774A.1 murine macrophage cell line, J774A.1, 24 h, read-out: Cytotoxicity CC50, murine macrophages
# Description: as §1
# In a sterile 96-well plate, murine macrophages of the cell line J774A.1 were placed to reach an amount of 10^5 cells per well using RPMI 1640 medium without phenol red. After murine macrophage attachment, 50 µL serial dilutions of the isolated compounds were added in each well until reaching a final volume of 100 µL. Next, 10% of Alamar Blue® was placed into each well and the plate was incubated for 24 h at 37 °C with a 5% CO2 atmosphere. Finally, the plates were analyzed using an EnSpire® Multimode Plate Reader (PerkinElmer, Madrid, Spain), as described in the previous section, and the 50% cytotoxic concentration (CC50) values were calculated.
# as §4
# [5] = tested on: intracellular amastigotes of L. amazonensis; experiment: In vitro effect against amastigote stage in infected macrophages; assay type: cell-based, Leishmania amazonensis
# Description: To determine the in vitro effect against the amastigote stage of L. amazonensis, murine macrophages were infected. In a sterile 96 well-plate, macrophages of the J774A.1 cell line were placed in RPMI 1640 to reach 10^5 macrophages per well. This plate was incubated at 37 °C in a 5% CO2 atmosphere. After one hour of incubation, 100 µL of stationary-phase promastigotes of 7-day-old culture was added in a 10:1 ratio (10^6 parasites per well) and the plates were re-incubated at 37 °C for 24 h to achieve maximum infection. Then, the wells were washed with fresh medium to remove non-phagocytosed promastigotes. The infected macrophages were treated with the compounds isolated for 24 h. Then, the medium was removed carefully to be replaced by 30 μL of 0.05% SDS and the plate was shaken for 30 s. After broke macrophages, 170 μL of Schneider’s medium was added to each well to give a final volume of 200 μL and 20 μL of Alamar Blue® was added to the plate being incubated at 26 °C for 72 h, as described by López-Arencibia et al. (2017). After 72 h of incubation, the plates were analyzed using the same protocol for the promastigote test.
# [6] = tested on: L. amazonensis promastigotes; experiment: ATP level analysis (Cell Titer-Glo); assay type: cell-based, Leishmania amazonensis; details: IC90 of compound, 24 h
# Description: (§5) To study the mechanism of cell death induced in parasites by compounds isolated from Gongolaria abies-marina, a common step was carried out to perform the following five experiments. The promastigotes of Leishmania spp. and epimastigotes of T. cruzi were incubated at the IC90 levels of the compounds (previously calculated) for 24 h at 26 °C. After incubation, the parasites were centrifuged at 3000 rpm for 10 min at 4 °C. The pellets were resuspended following the manufacturer’s instructions for each kit. After the incubation of promastigotes and epimastigotes of the parasites with the IC90 of the compounds, the changes in ATP levels were measured using a Cell Titer-Glo® Luminescent Cell Viability Assay (Promega, WI, USA). The assay was carried out in a white 96-well plate following the manufacturer’s instructions, as previously described by Cartuche et al. (2020). The luminescence was measured using an EnSpire® Multimode Plate Reader (PerkinElmer, Madrid, Spain).
# [7] = tested on: L. donovani promastigotes; experiment: ATP level analysis (Cell Titer-Glo); assay type: cell-based, Leishmania donovani; details: IC90 of compound, 24 h
# Description: as §5
# [8] = tested on: T. cruzi epimastigotes; experiment: ATP level analysis (Cell Titer-Glo); assay type: cell-based, Trypanosoma cruzi; details: IC90 of compound, 24 h
# Description: as §5
# [9] = tested on: L. amazonensis promastigotes; experiment: Mitochondrial membrane potential (JC-1 assay); assay type: cell-based, Leishmania amazonensis; details: IC90, 24 h
# Description: (§6) To study the mechanism of cell death induced in parasites by compounds isolated from Gongolaria abies-marina, a common step was carried out to perform the following five experiments. The promastigotes of Leishmania spp. and epimastigotes of T. cruzi were incubated at the IC90 levels of the compounds (previously calculated) for 24 h at 26 °C. After incubation, the parasites were centrifuged at 3000 rpm for 10 min at 4 °C. The pellets were resuspended following the manufacturer’s instructions for each kit. A JC-1 Mitochondrial Membrane Potential Assay Kit® (Cayman Chemical, Ann Arbor, MI, USA) was used to analyze variations in the mitochondrial membrane potential of the parasites after incubation at the IC90 levels of the compounds. After centrifugation, the parasites were resuspended in the same buffer and transferred to a black 96-well plate. JC-1 was added following the manufacturer’s instructions as also described by López-Arencibia et al. (2020). Green and red fluorescence was measured using an EnSpire® Multimode Plate Reader (PerkinElmer, Madrid, Spain).
# [10] = tested on: L. donovani promastigotes; experiment: Mitochondrial membrane potential (JC-1 assay); assay type: cell-based, Leishmania donovani; details: IC90, 24 h
# Description: as §6
# [11] = tested on: T. cruzi epimastigotes; experiment: Mitochondrial membrane potential (JC-1 assay); assay type: cell-based, Trypanosoma cruzi; details: IC90, 24 h
# Description: as §6
# [12] = tested on: promastigotes of Leishmania infantum; parameters: method as in PMID 28126391; details: read-out: IC50 against promastigotes of Leishmania infantum; cited from earlier work
# [13] = tested on: intracellular form of L. infantum; parameters: method as in PMID 28126391; details: read-out: IC50 against the intracellular form of L. infantum; cited from earlier work
Compound,"Selectivity index (CC50/IC50), L. amazonensis ([1]; CC50 in murine macrophages)","IC50 ([1]; Leishmania amazonensis, 72 h, Alamar Blue, read-out: Antikinetoplastid activity IC50, L. amazonensis) [µM]","Selectivity index (CC50/IC50), L. donovani ([2]; CC50 in murine macrophages)","IC50 ([2]; Leishmania donovani, 72 h, Alamar Blue, read-out: Antikinetoplastid activity IC50, L. donovani) [µM]","Selectivity index (CC50/IC50), T. cruzi ([3]; CC50 in murine macrophages)","IC50 ([3]; Trypanosoma cruzi, 72 h, Alamar Blue, read-out: Antikinetoplastid activity IC50, T. cruzi) [µM]",CC50 at 24 h [4] [µM],"Selectivity index (CC50/IC50), amastigotes of L. amazonensis ([5]; CC50 in murine macrophages)","IC50 ([5]; Leishmania amazonensis, J774.A1, intracellular amastigotes in J774A.1 macrophages, 24 h treatment) [µM]",ATP levels relative to negative control [6],ATP levels relative to negative control [7],ATP levels relative to negative control [8],ATP levels relative to negative control ([8]; listed as cystomexicone B (1)),Mitochondrial membrane potential changes (JC-1) [9],Mitochondrial membrane potential changes (JC-1) [10],Mitochondrial membrane potential changes (JC-1) [11],IC50 [12] [µM],IC50 [13] [µM]
"COc1c(C)cc(O)cc1C/C=C(\C)CC(=O)/C=C(\C)CCCC(C)=O [Cystomexicone B (1), cystomexicone B]",> 7.61,36.6 ± 4.24,> 1.12,248.3 ± 0.94,> 14.53,19.2 ± 2.62,> 279,>11.36,24.6 ± 0.83,significantly decreased,significantly decreased,significantly decreased,most affected,does not produce significant changes,does not produce significant changes,does not produce significant changes,–,–
3S-tetraprenyltoluquinone,–,–,–,–,–,–,–,–,–,–,–,–,–,–,–,–,94.4,88
3R-tetraprenyltoluquinone,–,–,–,–,–,–,–,–,–,–,–,–,–,–,–,–,44.9,25
